Laboratory results from ChEMBL document CHEMBL1201862, “PubChem BioAssay data set” (2004).
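Following 48 hours of exposure in 96-well plates, responses at five concentrations were used to interpolate endpoints linearly. At the GI50, growth is halved.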 The source made the active and inactive calls. No stated cut-off is given here; in the data, active = GI50 up to about 1.1 µM and inactive = higher.

What was measured:
Test in all cases: NCI-60 cell line screen, 48 h
[1] = test system: U-251
[2] = test system: HCC 2998
[3] = test system: OVCAR-3
[4] = test system: SR
[5] = test system: UO-31
[6] = test system: OVCAR-8
[7] = test system: UACC-62
[8] = test system: SF-268
[9] = test system: A549
[10] = test system: LOX IMVI
[11] = test system: K562
[12] = test system: TK-10
[13] = test system: M14
[14] = test system: MDA-N
[15] = test system: SNB-19
[16] = test system: NCI-H23
[17] = test system: SF-539
[18] = test system: SNB-75
[19] = test system: IGROV-1

Measured: GI50

O=[N+]([O-])c1cc(-c2nc(-c3ccccc3)c(-c3ccccc3)[nH]2)c(O)c([N+](=O)[O-])c1
inactive: [1] 14.8 µM | [2] 16.6 µM | [3] 33 µM | [4] 20.8 µM | [5] 18.2 µM | [6] 34 µM | [7] 17.5 µM | [8] 30.1 µM | [9] 34.4 µM | [10] 23.6 µM | [11] 30.8 µM | [12] 28.5 µM | [13] 21.1 µM | [14] 31.1 µM | [15] 36.9 µM | [16] 16.9 µM | [17] 19.5 µM | [18] 23 µM | [19] 32.7 µM

O=[N+]([O-])c1ccc2ncccc2c1CCc1c([N+](=O)[O-])ccc2ncccc12
inactive: [1] > 100 µM | [2] > 100 µM | [3] > 100 µM | [4] > 100 µM | [5] > 100 µM | [6] > 100 µM | [7] > 100 µM | [8] > 100 µM | [9] > 100 µM | [10] > 100 µM | [11] > 100 µM | [12] > 100 µM | [13] > 100 µM | [14] > 100 µM | [15] > 100 µM | [16] > 100 µM | [17] > 100 µM | [18] > 100 µM | [19] > 100 µM

Clc1ccc(Cl)c(/N=N\c2cc3c4c(c2)CCN4CCC3)c1
inactive: [1] > 10 µM | [2] > 10 µM | [3] > 10 µM | [4] > 10 µM | [5] > 10 µM | [6] > 10 µM | [7] > 10 µM | [8] > 10 µM | [9] > 10 µM | [10] > 10 µM | [11] > 10 µM | [12] > 10 µM | [13] > 10 µM | [14] > 10 µM | [15] > 10 µM | [16] > 10 µM | [17] > 10 µM | [18] > 10 µM | [19] > 10 µM

COc1ccc(-n2cnc3c(NC(C)(C)C(=O)O)ncnc32)cc1
inactive: [1] > 100 µM | [2] > 100 µM | [3] > 100 µM | [4] > 100 µM | [5] > 100 µM | [6] > 100 µM | [7] > 100 µM | [8] > 100 µM | [9] > 100 µM | [10] > 100 µM | [11] > 100 µM | [12] > 100 µM | [13] > 100 µM | [14] > 100 µM | [15] > 100 µM | [16] > 100 µM | [18] > 100 µM | [19] > 100 µM

COc1cc(OC)c(C2c3cc4c(cc3OC(N3CCOCC3)C2C)OCO4)c(OC)c1 (centres undefined)
inactive: [2] > 100 µM | [3] 7.29 µM | [4] 18 µM | [5] 16.5 µM | [6] 43.6 µM | [7] 29.9 µM | [8] 20.5 µM | [9] 45.9 µM | [10] 23.2 µM | [11] 40.8 µM | [12] > 100 µM | [13] 53.1 µM | [14] 72.6 µM | [15] 28.7 µM | [16] > 100 µM | [17] 12.3 µM | [18] 16.4 µM | [19] 22.1 µM

O=C(NCCc1ccccn1)c1ccc2cc(C(=O)N3CC(CCl)c4ccc([N+](=O)[O-])cc43)[nH]c2c1 (centres undefined)
inactive: [1] 18.5 µM | [2] 61.5 µM | [3] 5.52 µM | [4] > 100 µM | [5] > 49.8 µM | [6] 9.12 µM | [7] 8.99 µM | [8] 7.1 µM | [9] > 72.9 µM | [10] > 100 µM | [11] > 100 µM | [12] 20.7 µM | [13] > 100 µM | [14] > 100 µM | [15] 12.1 µM | [16] 45.3 µM | [17] > 43.4 µM | [18] 18.8 µM | [19] 53.6 µM

O=C(O)[C@@H]1C2CC([C@@H]1C(=O)O)[C@H](N1C(=O)CCC1=O)[C@@H]2Br (some centres undefined)
inactive: [1] > 100 µM | [2] > 100 µM | [3] > 100 µM | [4] > 100 µM | [5] > 100 µM | [6] > 100 µM | [7] > 100 µM | [8] > 100 µM | [9] > 100 µM | [10] > 100 µM | [11] > 100 µM | [12] > 100 µM | [13] > 100 µM | [14] > 100 µM | [15] > 100 µM | [16] > 100 µM | [17] > 100 µM | [18] 84.5 µM | [19] > 100 µM

C[C@H](CCC(=O)O[C@@H]1CC[C@@]2(C)C(CC[C@H]3[C@@H]4CC[C@H]([C@H](C)CCc5nc6ccccc6[nH]5)[C@@]4(C)CC[C@@H]32)C1)[C@H]1CC[C@H]2[C@@H]3CCC4C[C@H](O)CC[C@]4(C)[C@H]3CC[C@]12C (some centres undefined)
inactive: [1] 36.7 µM | [2] 2.54 µM | [3] > 100 µM | [4] > 100 µM | [5] 2.43 µM | [6] 20.2 µM | [7] > 100 µM | [8] 5.38 µM | [9] > 100 µM | [10] 3.95 µM | [11] > 100 µM | [12] > 100 µM | [13] > 100 µM | [14] > 100 µM | [15] 5.48 µM | [16] 4.53 µM | [17] > 100 µM | [18] 3.97 µM | [19] 1.33 µM

COC(=O)[C@@H]1O[C@]12C(CO[Si](C)(C)C(C)(C)C)OC(n1ccc(=O)[nH]c1=O)C2O[Si](C)(C)C(C)(C)C (some centres undefined)
inactive: [1] 26.2 µM | [2] 6.87 µM | [3] 16.7 µM | [4] > 10 µM | [5] 18.9 µM | [6] 30.9 µM | [7] 24.2 µM | [8] 30.4 µM | [9] 32.7 µM | [10] 14.8 µM | [11] 25.5 µM | [12] 27.1 µM | [13] 15.3 µM | [14] 33.1 µM | [15] 22.9 µM | [16] 19.8 µM | [17] 19.7 µM | [18] > 100 µM | [19] 17.7 µM

c1ccc(-c2cn3c(nc4ccccc43)c(-c3ccccc3)n2)cc1
inactive: [1] 14.2 µM | [2] > 100 µM | [3] > 100 µM | [4] > 100 µM | [5] 37.7 µM | [6] 13.3 µM | [7] 12.4 µM | [8] > 50.6 µM | [9] > 68.7 µM | [10] 81.8 µM | [11] > 100 µM | [12] > 59.6 µM | [13] > 100 µM | [14] > 31.6 µM | [15] 16.8 µM | [16] 55.2 µM | [17] 27.9 µM | [18] 14.5 µM | [19] 42.9 µM

CC(C)(Oc1ccc(Cl)cc1)C(=O)N(C(=O)N1CCN(c2ccccc2)CC1)c1ccccc1
inactive: [1] 6.21 µM | [2] 92.5 µM | [3] 26.7 µM | [4] 3.76 µM | [5] 11.7 µM | [6] > 100 µM | [7] 5.83 µM | [8] > 100 µM | [9] 7.46 µM | [10] > 100 µM | [11] 3.96 µM | [12] 68.5 µM | [13] 45.7 µM | [14] 62.8 µM | [15] > 100 µM | [16] 8.83 µM | [17] 34.4 µM | [18] > 100 µM

CC(=O)Nc1cc2nc3n(c2cc1C)CCC3OC(C)=O (centres undefined)
inactive: [1] > 100 µM | [2] > 100 µM | [3] > 100 µM | [4] > 100 µM | [5] > 100 µM | [6] > 100 µM | [7] > 100 µM | [8] > 100 µM | [9] > 100 µM | [10] > 100 µM | [11] > 100 µM | [13] > 100 µM | [14] > 100 µM | [15] > 100 µM | [16] > 100 µM | [17] > 100 µM | [18] > 100 µM | [19] > 100 µM

COc1ccc(C2N(c3ccc(C)c(N=C=O)c3)C(=O)N3C(c4ccc(OC)cc4)N(c4ccc(C)c(N=C=O)c4)C(=O)N23)cc1 (centres undefined)
inactive: [1] > 100 µM | [2] > 100 µM | [3] > 100 µM | [4] > 100 µM | [5] > 100 µM | [6] > 100 µM | [8] > 100 µM | [9] > 100 µM | [10] > 100 µM | [11] > 100 µM | [12] > 100 µM | [13] 29.1 µM | [14] > 100 µM | [15] > 100 µM | [16] > 100 µM | [17] > 100 µM | [18] 37.7 µM | [19] 38.9 µM

N#Cc1c(-c2ccc(Cl)cc2)c(C#N)c(=O)n(NS(=O)(=O)c2ccccc2)c1S
inactive: [1] 23.1 µM | [2] > 10 µM | [3] 23.1 µM | [4] 17 µM | [5] 16.2 µM | [6] 19.9 µM | [7] 19.1 µM | [9] 29.4 µM | [10] 18 µM | [11] 27.9 µM | [12] 18.5 µM | [13] 26.7 µM | [14] 25.9 µM | [16] 39.3 µM | [17] 18.3 µM | [18] 28.7 µM | [19] 21.6 µM
